Measurements reported in ChEMBL document CHEMBL2406915, “Antimalarial and cytotoxic activities of chiral triamines” (Bioorg Med Chem Lett, 2013).
≈ marks a conversion by molar mass, not a printed value.

Tests used:
[1] = Toxicity index, ratio of ED50 for human KB cells to ED50 for […] Plasmodium falciparum 3D7; assay type: cell-based; settings: KB cells versus Plasmodium falciparum 3D7, read-out: Ratio ED50
[2] = test system: Plasmodium falciparum; assay: Antimalarial activity against […] Plasmodium falciparum 3D7; assay type: functional, organism-based; settings: for EC50: read-out: ED50 (the source's name)
[3] = Cytotoxicity against human KB cells; assay type: cell-based; settings: read-out: ED50 (the source's name)

SMILES	selectivity ratio [1]	EC50 [2] [µg/mL]	CC50 [3] [µg/mL]	IC50 [2] [µg/mL]
CNC[C@H](Cc1ccc2ccccc2c1)NC[C@@H](Cc1ccc2ccccc2c1)NCCc1ccc(Cl)c(Cl)c1	23	0.24 (≈ 0.421 µM)	5.53 (≈ 9.69 µM)	
CCOc1ccc(CCN[C@H](CN[C@@H](CNC)CC2CCCCC2)Cc2ccc3ccccc3c2)cc1	19.3	0.16 (≈ 0.319 µM)	3.1 (≈ 6.18 µM)	
CNC[C@H](Cc1ccc2ccccc2c1)NC[C@H](Cc1ccc2ccccc2c1)NCC(C)c1ccc(CC(C)C)cc1 (stereo not given in full)	11.6	0.18 (≈ 0.315 µM)	2.09 (≈ 3.65 µM)	
CNC[C@@H](Cc1ccccc1)NC[C@@H](Cc1ccc2ccccc2c1)NCC1CCC(C)CC1 (stereo not given in full)	8.23	0.22 (≈ 0.481 µM)	1.73 (≈ 3.78 µM)	
CNC[C@@H](Cc1ccccc1)NC[C@H](Cc1ccc2ccccc2c1)NCC1(c2ccccc2)CC1	2.36	0.22 (≈ 0.461 µM)	0.52 (≈ 1.09 µM)	
CNC[C@@H](CC1CCCCC1)NC[C@@H](Cc1ccc2ccccc2c1)NCCc1ccc(Cl)c(Cl)c1	19.2	0.22 (≈ 0.418 µM)	4.23 (≈ 8.03 µM)	
CNC[C@@H](Cc1ccccc1)NC[C@@H](Cc1ccc2ccccc2c1)NCC1(c2ccccc2)CC1	5.46	0.28 (≈ 0.586 µM)	1.53 (≈ 3.2 µM)	
CNC[C@@H](Cc1ccc2ccccc2c1)NC[C@H](Cc1ccc2ccccc2c1)NCC1(c2ccccc2)CC1	4.93	0.29 (≈ 0.549 µM)	1.43 (≈ 2.71 µM)	
CNC[C@@H](CC1CCCCC1)NC[C@@H](Cc1ccc2ccccc2c1)NCC(C)c1ccc(CC(C)C)cc1 (stereo not given in full)	24.1	0.29 (≈ 0.549 µM)	7.01 (≈ 13.3 µM)	
CNC[C@H](Cc1ccc2ccccc2c1)NC[C@H](Cc1ccc2ccccc2c1)NCCC1CCCCC1	88.5	0.02 (≈ 0.0394 µM)	1.77 (≈ 3.49 µM)	
CNC[C@H](Cc1ccc2ccccc2c1)NC[C@@H](Cc1ccc2ccccc2c1)NCC1(c2ccccc2)CC1	32	0.05 (≈ 0.0947 µM)	1.6 (≈ 3.03 µM)	
CNC[C@H](Cc1ccc2ccccc2c1)NC[C@H](Cc1ccc2ccccc2c1)NCC1(c2ccccc2)CC1	43.5	0.05 (≈ 0.0947 µM)	2.18 (≈ 4.13 µM)	
CNC[C@H](Cc1ccc2ccccc2c1)NC[C@@H](Cc1ccc2ccccc2c1)NCCC1CCCCC1	17.7	0.09 (≈ 0.177 µM)	1.6 (≈ 3.15 µM)	
CNC[C@H](Cc1ccc2ccccc2c1)NC[C@@H](Cc1ccc2ccccc2c1)NCC1CCC(C)CC1 (stereo not given in full)	20.3	0.1 (≈ 0.197 µM)	2.03 (≈ 4 µM)	
CNC[C@@H](CC1CCCCC1)NC[C@H](Cc1ccc2ccccc2c1)NCC1CCC(C)CC1 (stereo not given in full)	69	0.1 (≈ 0.216 µM)	6.9 (≈ 14.9 µM)	
CNC[C@@H](CC1CCCCC1)NC[C@H](Cc1ccc2ccccc2c1)NCC1(c2ccccc2)CC1	15.7	0.11 (≈ 0.227 µM)	1.71 (≈ 3.53 µM)	
CNC[C@@H](CC1CCCCC1)NC[C@H](Cc1ccc2ccccc2c1)NCCC1CCCCC1		0.11 (≈ 0.237 µM)	0.11 (≈ 0.237 µM)	
CCOc1ccc(CCN[C@H](CN[C@H](CNC)Cc2ccc3ccccc3c2)Cc2ccc3ccccc3c2)cc1	26	0.12 (≈ 0.22 µM)	3.23 (≈ 5.92 µM)	
CNC[C@H](Cc1ccc2ccccc2c1)NC[C@@H](Cc1ccc2ccccc2c1)NCC(C)c1ccc(CC(C)C)cc1 (stereo not given in full)	13	0.13 (≈ 0.227 µM)	1.71 (≈ 2.99 µM)	
CNC[C@@H](CC1CCCCC1)NC[C@@H](Cc1ccc2ccccc2c1)NCCC1CCCCC1	11.3	0.14 (≈ 0.302 µM)	1.59 (≈ 3.43 µM)	
C[C@H]1[C@H](OC(=O)CCC(=O)O)O[C@@H]2O[C@@]3(C)CC[C@H]4[C@H](C)CC[C@@H]1[C@@]24OO3 [ARTESUNATE]				0.002 (≈ 0.0052 µM)
